# Experimental data taken from patent publication US7476673B2, “Disubstituted chalcone oximes as selective agonists of RARγ retinoid receptors” (Allergan, Inc., priority 2003, dated 2009).
# What was measured:
# [1] = molecular target: T1, RARβ (Homo sapiens, UniProt P10826); experiment: chimeric receptor transactivation assay, RARβ; type: cell-based; settings: for EC50: chimeric receptor transactivation, read-out: RAR EC50 β; for % Efficiency β: percentage of maximum compared to standard TTNPB
# T1 sequence (P10826 183-455 limits assumed): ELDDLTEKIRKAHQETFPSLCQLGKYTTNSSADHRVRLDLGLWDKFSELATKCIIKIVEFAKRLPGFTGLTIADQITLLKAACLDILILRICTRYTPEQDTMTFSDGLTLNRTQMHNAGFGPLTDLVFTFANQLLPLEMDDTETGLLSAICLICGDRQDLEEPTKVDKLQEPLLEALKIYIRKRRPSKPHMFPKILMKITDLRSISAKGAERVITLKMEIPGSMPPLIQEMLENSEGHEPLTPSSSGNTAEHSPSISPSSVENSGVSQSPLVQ
# Procedure: (§1) The compounds of the invention were tested in certain assays for activity as agonists of RAR and RXR retinoid receptors. Specifically, one such assay is a chimeric receptor transactivation assay which tests for agonist-like activity in the RARα, RARβ and RARγ receptor subtypes, and which is based on work published by Feigner P. L. and Holm M. (1989) Focus, 112 is described in detail in U.S. Pat. No. 5,455,265. The specification of U.S. Pat. No. 5,455,265 is hereby expressly incorporated by reference.
# (§2) A holoreceptor transactivation assay and a ligand binding assay which measure the antagonist/agonist like activity of the compounds of the invention, or their ability to bind to the several retinoid receptor subtypes, respectively, are described in published PCT Application No. WO WO93/11755 (particularly on pages 30-33 and 37-41) published on Jun. 24, 1993, the specification of which is also incorporated herein by reference. A detailed experimental procedure for holoreceptor transactivations has been described by Heyman et al. Cell 68, 397-406, (1992); Allegretto et al. J. Biol. Chem. 268, 26625-26633, and Mangelsdorf et al. The Retinoids: Biology, Chemistry and Medicine, pp 319-349, Raven Press Ltd., New York, which are expressly incorporated herein by reference. The results obtained in this assay are expressed in EC50 numbers, as they are also in the chimeric receptor transactivation assay. The results of the ligand binding assay are expressed in Ki numbers. (See Cheng et al. Biochemical Pharmacology Vol. 22 pp 3099-3108, expressly incorporated herein by reference.)
# (§3) Efficacy in a transactivation assay is expressed as a percentage of the maximum potency attained by the compound compared to a standard which, in this case, is the compound 4-[(1E)-2-(5,6,7,8-tetrahydro-5,5,8,8-tetramethyl-2-naphthalenyl)-1-propenyl]-benzoic acid. (TTNPB) This standard compound is described in PCT Publication WO 2002077169 A2.
# (§4) Table 1 discloses the activity of certain exemplary compounds of the invention in the above-described chimeric RAR receptor transactivation and binding assays.
# [2] = molecular target: T2, RARα (Homo sapiens, UniProt P10276); experiment: chimeric receptor transactivation assay, RARα; type: cell-based; settings: for EC50: chimeric receptor transactivation, read-out: RAR EC50 α; for % Efficiency α: percentage of maximum compared to standard TTNPB
# T2 sequence (P10276 183-417 limits assumed): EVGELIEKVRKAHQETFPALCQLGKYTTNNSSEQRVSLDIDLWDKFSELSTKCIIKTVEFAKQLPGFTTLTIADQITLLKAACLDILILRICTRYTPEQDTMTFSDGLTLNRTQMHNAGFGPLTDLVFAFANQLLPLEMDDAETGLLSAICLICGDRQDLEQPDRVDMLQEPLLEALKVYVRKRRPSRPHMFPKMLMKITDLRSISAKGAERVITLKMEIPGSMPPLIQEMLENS
# Procedure: as §1, §2, §3, §4
# [3] = molecular target: T3, RARγ (Homo sapiens, UniProt P13631); experiment: chimeric receptor transactivation assay, RARγ; type: cell-based; settings: for EC50: chimeric receptor transactivation, read-out: RAR EC50 γ; for % Efficiency γ: percentage of maximum compared to standard TTNPB
# T3 construct: % Efficiency γ; other: percentage of maximum compared to standard TTNPB
# T3 sequence (P13631 185-454 limits assumed): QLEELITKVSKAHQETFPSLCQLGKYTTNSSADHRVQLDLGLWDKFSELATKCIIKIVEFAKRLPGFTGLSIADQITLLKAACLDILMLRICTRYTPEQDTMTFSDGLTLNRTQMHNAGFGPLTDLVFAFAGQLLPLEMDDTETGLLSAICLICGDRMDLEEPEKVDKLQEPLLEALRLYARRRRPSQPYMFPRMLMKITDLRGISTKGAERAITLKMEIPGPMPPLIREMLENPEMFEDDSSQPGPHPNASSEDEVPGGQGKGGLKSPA
# Procedure: as §1, §2, §3, §4
# [4] = molecular target: T4, RARα (Homo sapiens, UniProt P10276); experiment: ligand binding assay, RARα; settings: results expressed in Ki numbers, read-out: RAR Binding α
# T4 sequence (P10276 1-462): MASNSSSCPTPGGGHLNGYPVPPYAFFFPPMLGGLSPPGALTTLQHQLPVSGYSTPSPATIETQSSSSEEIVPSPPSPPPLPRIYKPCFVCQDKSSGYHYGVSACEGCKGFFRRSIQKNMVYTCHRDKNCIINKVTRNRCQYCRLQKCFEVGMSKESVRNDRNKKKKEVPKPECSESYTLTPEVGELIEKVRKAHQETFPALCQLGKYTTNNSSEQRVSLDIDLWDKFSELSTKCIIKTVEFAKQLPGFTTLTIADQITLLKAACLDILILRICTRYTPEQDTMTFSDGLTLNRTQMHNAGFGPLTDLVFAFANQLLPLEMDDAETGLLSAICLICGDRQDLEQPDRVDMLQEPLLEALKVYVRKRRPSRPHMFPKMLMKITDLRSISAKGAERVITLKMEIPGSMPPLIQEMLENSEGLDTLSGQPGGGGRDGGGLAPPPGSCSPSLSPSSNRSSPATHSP
# Excerpt: as §2, §4
# [5] = molecular target: T5, RARγ (Homo sapiens, UniProt P13631); experiment: ligand binding assay, RARγ; settings: results expressed in Ki numbers, read-out: RAR Binding γ
# T5 sequence (P13631 1-454): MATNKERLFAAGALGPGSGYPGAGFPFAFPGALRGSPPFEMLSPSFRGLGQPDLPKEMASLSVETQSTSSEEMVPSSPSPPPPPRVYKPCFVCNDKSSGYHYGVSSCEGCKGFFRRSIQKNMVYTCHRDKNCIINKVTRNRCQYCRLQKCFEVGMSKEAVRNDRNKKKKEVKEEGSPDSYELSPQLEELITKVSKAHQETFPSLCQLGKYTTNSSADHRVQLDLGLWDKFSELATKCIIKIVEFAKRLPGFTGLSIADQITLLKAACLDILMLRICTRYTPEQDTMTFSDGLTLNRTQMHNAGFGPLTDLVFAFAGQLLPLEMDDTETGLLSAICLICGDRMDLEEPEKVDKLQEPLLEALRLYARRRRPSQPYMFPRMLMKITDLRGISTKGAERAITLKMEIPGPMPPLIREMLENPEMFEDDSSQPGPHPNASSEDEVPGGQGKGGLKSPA
# Excerpt: as §2, §4
# [6] = molecular target: T6, RARβ (Homo sapiens, UniProt P10826); experiment: ligand binding assay, RARβ; settings: results expressed in Ki numbers, read-out: RAR Binding β
# T6 sequence (P10826 1-455): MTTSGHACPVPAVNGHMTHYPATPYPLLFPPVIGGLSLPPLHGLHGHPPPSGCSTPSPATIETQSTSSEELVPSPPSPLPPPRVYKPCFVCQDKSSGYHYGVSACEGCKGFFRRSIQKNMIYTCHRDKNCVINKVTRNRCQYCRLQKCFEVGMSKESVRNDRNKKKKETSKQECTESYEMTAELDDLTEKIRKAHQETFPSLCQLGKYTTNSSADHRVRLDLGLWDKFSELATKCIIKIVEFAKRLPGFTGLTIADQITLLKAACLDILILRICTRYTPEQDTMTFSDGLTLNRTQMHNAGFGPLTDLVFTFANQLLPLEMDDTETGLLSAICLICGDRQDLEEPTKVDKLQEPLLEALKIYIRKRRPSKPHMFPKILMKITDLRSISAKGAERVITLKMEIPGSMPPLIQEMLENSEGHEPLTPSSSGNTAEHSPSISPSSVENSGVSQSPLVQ
# Excerpt: as §2, §4
EC50 [1] [nM],% Efficiency β [1] [%],EC50 [2] [nM],EC50 [3] [nM],% Efficiency γ [3] [%],Ki [4] [µM],Ki [5] [nM],Ki [6] [µM],% Efficiency α [2] [%],SMILES
118,85,> 1000,0.85,76,8,34,8,,CC1(C)CCC(C)(C)c2cc(C(C=Cc3ccc(C(=O)O)cc3F)=NO)ccc21 [drawing 11]
> 10000,,> 10000,> 10000,,> 10,> 10000,> 10,,CC1(C)CC(C)(C)c2cc(C(C=Cc3ccc(C(=O)O)cc3)=NO)ccc2O1 [drawing 24]
54,95,7000,0.3,91,3,6,1.3,38,CC1=CCC(C)(C)c2cc(C(/C=C/c3ccc(C(=O)O)cc3)=N/O)ccc21
4060,95,345,14,123,2.1,132,7,120,CC1(C)CCCc2ccc(C(/C=C/c3ccc(C(=O)O)cc3F)=N\O)cc21
168,86,> 1000,2,92,7,256,11,,CC1=CCC(C)(C)c2cc(C(/C=C/c3ccc(C(=O)O)cc3F)=N/O)ccc21
83,104,148,0.2,71,7,6,17,55,CC1(C)CC(C)(C)c2cc(C(C=Cc3ccc(C(=O)O)cc3)=NO)ccc21 [drawing 30]
5920,44,> 1000,84,107,10,1500,10,,COc1cc2c(cc1C(/C=C/c1ccc(C(=O)O)cc1)=N\O)C(C)(C)CCC2(C)C
249,82,> 1000,9,79,13,264,27,,CC1(C)CC(C)(C)c2cc(C(/C=C/c3ccc(C(=O)O)cc3F)=N\O)ccc21
3440,41,> 1000,23,48,8,583,17,,Cc1cc2c(cc1C(C=Cc1ccc(C(=O)O)cc1)=NO)C(C)(C)CCC2(C)C [drawing 36]
77,110,128,143,151,25,461,,54,CC1(C)CCC(C)(C)c2nc(C(C=Cc3ccc(C(=O)O)cc3)=NO)cnc21 [drawing 35]
79,87,242,0.75,88,5,6,1.08,117,CC1(C)CCSc2ccc(C(C=Cc3ccc(C(=O)O)cc3)=NO)cc21 [drawing 18]
445,92,> 1000,11,90,18,28,11,,CC1=CCC(C)(C)c2cc(C(/C=C/c3ccc(C(=O)O)cc3F)=N\O)ccc21
157,14,> 1000,35,67,8,1850,28,,Cc1cc2c(cc1C(C=Cc1ccc(C(=O)O)cc1)=NO)C(C)(C)CCC2(C)C [drawing 37]
473,23,> 1000,92,35,17,32,9,,CCCCCCCN1C(=O)CC(C)(C)c2cc(C(/C=C/c3ccc(C(=O)O)cc3)=N\O)ccc21
,,> 1000,10,11,11,51,29,,CCCCCCCN1C(=O)CC(C)(C)c2cc(C(C=Cc3ccc(C(=O)O)cc3)=NO)ccc21
105,88,4000,10,123,27,240,,41,CC1(C)CCC(C)(C)c2nc(C(C=Cc3ccc(C(=O)O)cc3)=NO)cnc21 [drawing 34]
